Data from ChEMBL document CHEMBL5576134, “Targeting Pancreatic Cancer with Novel Nicolaioidesin C Derivatives: Molecular Mechanism, In Vitro, and In Vivo Evaluations” (J Med Chem, 2024).
The source made the active and inactive calls. The rule behind the calls is not given here.

What was measured:
MIA PaCa-2 [1] = assay: Preferential cytotoxicity against human MIA PaCa-2 cells in nutrient-deprived medium assessed as alteration in cell morphology by measuring membrane leakage at 0.5 to 1 uM measured after 24 hrs by acridine orange and ethidium bromide dual fluorescent staining based microscopic analysis; format: functional; settings: dose 0.5-1 µM
MIA PaCa-2 [2] = assay: Induction of endoplasmic reticulum (ER) stress in human MIA PaCa-2 cells assessed as reduction in CHOP expression measured after 6 hrs by Western blot analysis; format: functional, cell-based; settings: dose 5.0 µM
[3] = Selectivity index, ratio of IC50 for preferential cytotoxicity against human PANC-1 cells in DMEM to PC50 for preferential cytotoxicity against human PANC-1 cells in nutrient-deprived medium; format: functional
MIA PaCa-2 [4] = assay: Antitumor activity against human MIA PaCa-2 cells xenografted in BALB/c/Nu/Nu mouse assessed as reduction in final tumor weight at 60 mg/kg, ip administered 5 times a week for 4 weeks in presence of gemcitabine (reference value: […]); format: functional
MIA PaCa-2 [5] = assay: Antitumor activity against human MIA PaCa-2 cells xenografted in BALB/c/Nu/Nu mouse assessed as reduction in tumor volume at 20 mg/kg, ip administered 5 times a week for 4 weeks and measured on day 16; format: functional, organism-based; settings: time 16.0 day
MIA PaCa-2 [6] = assay: Induction of endoplasmic reticulum (ER) stress in human MIA PaCa-2 cells assessed as change in TRB3 level at 5 uM measured after 6 hrs by Western blot analysis; format: functional, cell-based
MIA PaCa-2 [7] = assay: Induction of endoplasmic reticulum (ER) stress in human MIA PaCa-2 cells in DMEM medium assessed as change in TRB3 level at 5 uM measured after 6 hrs by Western blot analysis; format: functional, cell-based
MIA PaCa-2 [8] = assay: Preferential cytotoxicity against human MIA PaCa-2 cells in nutrient-deprived medium assessed as alteration in cell morphology by measuring membrane blebbing at 0.5 to 1 uM measured after 24 hrs by acridine orange and ethidium bromide dual fluorescent staining based microscopic analysis; format: functional; settings: dose 0.5-1 µM
MIA PaCa-2 [9] = assay: Preferential cytotoxicity against human MIA PaCa-2 cells in nutrient-deprived medium assessed as alteration in cell morphology by fluorescence intensity measured after 24 hrs by acridine orange and ethidium bromide dual fluorescent staining based microscopic analysis; format: functional; settings: dose 0.5-1 µM
[10] = Modulation of PI3K/AKT/mTOR signalling pathway in human MIA PaCa-2 cells in DMEM medium assessed as downregulation of AKT expression at 1 to 5 uM incubated for 24 hrs in presence of gemcitabine by Western blot analysis; format: cell-based; settings: filed as modulator, dose 1-5 µM
Mus musculus = assay: In-vivo modulation of PI3K/AKT/mTOR signalling pathway in human MIA PaCa-2 cells xenografted in BALB/c/Nu/Nu mouse assessed as downregulation of TRB3 level at 60 mg/kg, ip administered 5 times a week for 4 weeks in presence of gemcitabine by Western blot analysis; format: functional, organism-based
MIA PaCa-2 [11] = assay: Antimetastatic activity in human MIA PaCa-2 cells in DMEM media assessed as reduction in colony area at 20 uM incubated for 24 hrs by crystal violet staining-based assay; format: functional; parameters: scale not given: the % may be the effect or the level left
MIA PaCa-2 [12] = assay: Antitumor activity against human MIA PaCa-2 cells xenografted in BALB/c/Nu/Nu mouse assessed as reduction in number of blood vessels in skin at 60 mg/kg, ip administered 5 times a week for 4 weeks in presence of gemcitabine; format: functional, organism-based
[13] = Selectivity index, ratio of IC50 for preferential cytotoxicity against human MIA PaCa-2 cells in DMEM to PC50 for preferential cytotoxicity against human MIA PaCa-2 cells in nutrient-deprived medium; format: functional
MIA PaCa-2 [14] = assay: Antimetastatic activity in human MIA PaCa-2 cells in DMEM media assessed as inhibition of cell migration at 10 uM incubated for 18 hrs relative to control (reference value: 64%); format: functional
[15] = Toxicity in BALB/c/Nu/Nu mouse xenografted with human MIA PaCa-2 cells assessed as change in body weight at 60 mg/kg, ip administered 5 times a week for 4 weeks in presence of gemcitabine; format: organism-based; settings: in vivo, 672 h

Compound: CC(C)=CCCC1=CC[C@H](C(=O)c2c(O)cccc2O)[C@@H](c2cccc(F)c2F)C1 (relative stereo)
- Activity (MIA PaCa-2 [1]): Active
- Activity (MIA PaCa-2 [2]): Dose-Dependent Effect
- Selectivity Index [3]: 40.8
- Activity (MIA PaCa-2 [4]): 139 mg
- Activity (MIA PaCa-2 [5]): Active
- Activity (MIA PaCa-2 [6]): Active
- Activity (MIA PaCa-2 [7]): Active
- Activity (MIA PaCa-2 [8]): Active
- Activity (MIA PaCa-2 [9]): Dose-Dependent Effect
- Activity [10]: Active
- Activity (Mus musculus): Active
- Activity (MIA PaCa-2 [11]): 98%
- Activity (MIA PaCa-2 [12]): Active
- Selectivity Index [13]: 176
- inhibition at 10 µM (MIA PaCa-2 [14]): 92%
- Activity [15]: Non-Toxic
